Where no end group is shown, it is not given here.
system: not listed separately; assay: Solubility of IFNα peptides; assay type: physicochemical; details: in the T cell assay of Example 6

Row | Sequence | solubility of peptide
1 | EMIQQIFNLFSTKDS [compound 20, EMIQQIFNLFSTKDS] | insoluble
2 | VLHEMIQQIFNLFST [compound 19, VLHEMIQQIFNLFST] | insoluble

system: PBMC; assay: T cell activation assay (time course) of IFNα peptides, PBMC from 20 healthy donors and 20 IFN α2b-treated HCV patients; assay type: cell-based, human; details: 20 healthy donors and 20 HCV patients previously treated with IFN α2b; 6-9 days culture; 3H-thymidine

Row | Sequence | percentage of donors whose PBMC responded to a peptide (SI greater than about 1.95) [%]
3 | RRISLFSCLKDRHDF (Potential T-cell Epitopes) [compound 8] | 15
4 | SLFSCLKDRHDFGFP (Potential T-cell Epitopes) [compound 9] | 15
5 | KEDSILAVRKYFQRI (Potential T-cell Epitopes) [compound 38] | 15
6 | FNLFSTKDSSAAWDE (Potential T-cell Epitopes) [peptide 22] | 15
7 | SILAVRKYFQRITLY (Potential T-cell Epitopes) [peptide 39] | 25
